According to patent publication US11819533B2, “Compositions and methods for the treatment of fungal infections” (Cidara Therapeutics, Inc., priority 2017, dated 2023):
Starred links: 1 amine or outer side, 2 acyl side, 3 side chain; linkers in the order of their positions; H or OH if unused. Positions of bridges follow the written chain, without caps; N, C: chain ends. Non-standard residues stand in square brackets, D forms with d. Residues, ends and D or L forms follow the SMILES beside them. *: point of attachment. Orn(4R-OH,5R-OCH2CH2NMe3+) = C[N+](C)(C)CCO[C@@H](N[*:3])[C@H](O)C[C@H](N[*:1])C(=O)[*:2]; pTerphenylCO(4''-OnC5H11) = CCCCCOc1ccc(-c2ccc(-c3ccc(C(=O)*)cc3)cc2)cc1; Orn(4R-OH,5R-OH) = O=C([C@H](C[C@@H](O)[C@@H](O)N[*:3])N[*:1])[*:2]; hTyr(3S-OH,4S-OH) = N[C@H](C(=O)O)[C@H](O)[C@@H](O)c1ccc(O)cc1; Pro(3S-OH,4S-Me) = C[C@H]1CN[C@H](C(=O)O)[C@H]1O; Hyp = O=C(O)[C@@H]1C[C@@H](O)CN1

Columns and labels:
Candida auris = Candida auris infection in a murine model of disseminated candidiasis; assay type: in vivo; conditions: immunosuppressed CD-1 mice; for Percent survival at the end of the study: day 14, CD101 20 mg/kg IP, fluconazole 20 mg/kg PO, amphotericin B 0.3 mg/kg IP, doses on day 1 and day 4
Protocol: Female 6-8 week old CD-1 mice were immunosuppressed with cyclophosphamide (200 mg/kg) 3 days prior to infection and 150 mg/kg 1 day post-infection. On the day of infection, mice were inoculated with 3×10^7 C. auris blastospores via the lateral tail vein. Mice were randomized into 5 groups (n=5 for colony forming units (CFU) and n=10 for survival): CD101 20 mg/kg administered by intraperitoneal (IP) injection, fluconazole 20 mg/kg administered per os (PO), amphotericin B 0.3 mg/kg IP, and a vehicle control. Treatments were administered 2 hours post-infection (day 1) and again on day 4 of the study for a total of 2 doses. Mice were monitored daily and a survival curve was generated. CFU groups were sacrificed on day 8 of the study. One kidney was removed from each mouse, homogenized, plated on potato dextrose agar (PDA), and incubated at 35° C. for 2 days to determine CFU. The remaining survival mice were monitored until the end of the study (day 14).

[1] = tested on: C. albicans SC-5314 biofilms; assay: Activity against adhesion phase biofilms (prevention), XTT and CSLM; assay type: cell-based, Candida albicans; conditions: for CSLM biofilm architecture, adhesion phase / Metabolic activity (XTT) of adhesion phase biofilms compared to untreated: 24 h exposure, CD101 0.25 and 1 μg/ml, fluconazole 1 and 4 μg/ml; for Thickness of biofilms, adhesion phase: CSLM, untreated control 36 μm
Protocol: (§1) C. albicans SC-5314 was used for the current study.
(§2) In this study, biofilms were grown in vitro using a biofilm model (Chandra et al., Nature Protocols 3:1909, 2008) and the effect of CD101 on adhesion phase biofilms (representing prevention of biofilms) or mature phase biofilms (representing treatment of biofilms) was determined.
(§3) Biofilms were formed on silicone elastomer (SE) discs using a catheter-associated-biofilm model (Chandra et al., Nature Protocols 3:1909, 2008; Chandra et al., J. Bacteriol. 183: 5385, 2001; Chandra et al., J. Dental Research 80: 903, 2001). For evaluation of activity against adhesion phase biofilms (prevention), Candida cells were adhered to catheter discs for 90 min. […] For evaluation of activity against mature phase biofilms (treatment), Candida cells were adhered to catheter discs for 90 min, then transferred to fresh media and incubated for a further 24 h to allow formation of biofilms. […] Discs incubated with fluconazole or media alone were used as controls in all experiments.
(§4) At the end of drug exposure in both adhesion and mature phase biofilms, biofilms were quantified by measuring their metabolic activity using XTT assay (Chandra et al., Nature Protocols 3:1909, 2008; Chandra et al., J. Bacteriol. 183: 5385, 2001; Chandra et al., J. Dental Research 80: 903, 2001). Following incubation with drugs, discs were transferred to fresh plates containing phosphate buffered saline with XTT and menadione, incubated for 3 h at 37° C. and optical density was read at 492 nm. Separate batches of biofilms were stained with fluorescent dyes (FUN1™, CONA) and observed under Confocal Scanning Laser Microscope (CSLM) to evaluate biofilm architecture and thickness (Chandra et al., Nature Protocols 3:1909, 2008; Chandra et al., J. Bacteriol. 183: 5385, 2001).

[2] = tested on: C. albicans SC-5314 biofilms; assay: Activity against mature phase biofilms (treatment), XTT and CSLM; assay type: cell-based, Candida albicans; conditions: for CSLM biofilm architecture, mature phase / Metabolic activity (XTT) of mature phase biofilms compared to untreated: 24 h exposure of mature biofilms, CD101 0.25 and 1 μg/ml, fluconazole 1 and 4 μg/ml; for Thickness of biofilms, mature phase: CSLM, untreated control 43 μm
Protocol: as §1, §2, §3, §4

[3] = PBS buffer drop test (Example 3); assay type: physicochemical; conditions: 0.50% Tween 80, 0.76% mannitol, 0.125% sodium lactate in 3.5% dextrose solution, pH ~5.5; 2 mg/mL, 0.47 mg/mL in PBS
Protocol: These solutions were tested for solubility in the PBS drop test, which involved adding the solution dropwise into PBS solution (1:4.3 dilution) and visually observing the resulting solution for any precipitation. PBS buffer serves as a surrogate for plasma, and the PBS drop test is used to evaluate the potential for insolubility as the drug enters the bloodstream at the injection site.

[4] = PBS drop test of CD101 IV formulations (Example 4); assay type: physicochemical; conditions: 6 mg/mL in 1.25% Tween 80, 5% mannitol, 0.3% glacial acetic acid, pH ~4.5; 0.25 mL into 1 mL PBS
Protocol: Solubility of CD101-containing formulations with different percentages of Tween 80 (also referred to as polysorbate 80) was evaluated in a “PBS drop test.” This involved preparing a known concentration of CD101 in a formulation and injecting the formulation into PBS to visually examine for precipitation. This test was used to assess if a CD101-containing formulation would remain soluble in blood during IV infusions.
(1) 1.25% Tween 80, 5% mannitol, 0.3% glacial acetic acid, pH ˜4.5
(2) 0.50% Tween 80, 0.76% mannitol, 0.125% sodium lactate in 3.5% dextrose solution, pH ˜5.5
Different concentrations of CD101 acetate were prepared in vehicles (1) and (2) and tested for solubility in the PBS drop test.
Add dropwise the formulated solution into PBS solution (1:4 dilution). Visually observe the resulting solution upon addition for any precipitation.

[5] = tested on: C. albicans SC-5314 biofilms; assay: Time lapse microscopy of biofilm formation; assay type: cell-based, Candida albicans; conditions: followed up to 16 h
From the text: The effective CD101 concentration obtained from the above experiments was used to monitor its effect on biofilm formation in real time using TLM, which involves capturing real-time images of a single frame at specific time intervals, allowing temporal monitoring of the interactions occurring between the drug and Candida biofilms. Captured images were combined in a time sequence, resulting in an animation depicting the sequence of events that occurred with the passage of time. Briefly, the discs with C. albicans (adhered for 90 min as above) were placed in a 35-mm-diameter glass-bottom Petri dish (MatTek Corp., Ashland, MA). […] Phase contrast images for this interaction were captured immediately from 0 h and followed up to 16-17 h on a Leica DMI 6000 B inverted microscope connected to a Retiga EXi Aqua camera (Q-imaging Vancouver British Columbia). To determine the structural changes in the maturing biofilm, both acquisition and analysis of a series of horizontal (xy) optical sections of the biofilm was done using Metamorph Imaging software (Molecular Devices, Downington, PA). Disc incubated with media alone was used as control.

Sprague Dawley rats = assay: 14-day repeat-dose intravenous infusion toxicity study; assay type: in vivo
Protocol: The primary purpose of this study was to evaluate the toxicity of CD101 when administered intravenously as a 20-minute infusion into the lateral tail vein of Sprague Dawley rats for fourteen consecutive days. A positive control group (Eraxis®) with a similar structure and pharmacodynamic activity was included in the study design.
The test article, CD101 acetate, was a white to off-white powder. The test article was prepared into dosing formulations for intravenous dose administration. One hundred experimentally naïve Sprague Dawley rats (50 males and 50 females), a minimum of 8 weeks old and weighing 255-318 grams (males) and 192-215 (females) at the outset of the study were assigned to treatment groups as shown in Table 7 below:
All animals were dosed on Days 1 through 3 inclusive. As a result of tail vein irritation observed among all study groups, dose administration was suspended on Day 4 to allow the tails to recover. Dosing resumed on Day 5 and continued for a maximum of ten additional days (Days 5 through 14 inclusive). Animals that could no longer be dosed during this time remained on study.
Male and female Sprague Dawley rats were to receive CD101 acetate at doses of 0, 2, 6 and 20 mg/kg/day (Groups 1, 3, 4 and 5, respectively) or Eraxis® (the positive control article, Group 2) at a dose of 40 mg/kg/day, intravenously as a 20 minute infusion into the left or right lateral tail vein for fourteen consecutive days. During the first three treatment days, all animals were dosed with the first vehicle used on this study (1.75% Tween 80/5% Dextrose: Groups 1 and 3-5; 5% Dextrose: Group 2). As a result of the localized tail swelling observed during the first three days of treatment, study Day 4 served as a drug-free day to alleviate tail vein irritation. Dose administration resumed on Day 5 using a new vehicle (5% Mannitol/2.5% Tween 80/0.3% acetic acid: Groups 1 and 3-5; 5% Mannitol/0.3% acetic acid: Group 2) for the remainder of the treatment period (Days 5-14). Those animals that could no longer be dosed because of severe vein irritation were retained on study, untreated, until the end of the study (Day 15).

In the case of `OC(Cn1cncn1)(Cn1cncn1)c1ccc(F)cc1F` [fluconazole, reference compound], the “Percent survival at the end of the study” value (Candida auris) is reported as 0%, the “CSLM biofilm architecture, adhesion phase” value [1] is reported as “did not inhibit biofilm formation” and the “Metabolic activity (XTT) of adhesion phase biofilms compared to untreated” value [1] is reported as “did not inhibit biofilm formation”. The “Thickness of biofilms, adhesion phase” value [1] was “no effect on biofilm thickness”, the “CSLM biofilm architecture, mature phase” value [2] was “did not affect Candida biofilms” and the “Metabolic activity (XTT) of mature phase biofilms compared to untreated” value [2] was “neither concentrations of fluconazole (1 and 4 μg/ml) affected these biofilms”. The “Thickness of biofilms, mature phase” value [2] was “no effect”.
With `CCCCCOc1ccc(-c2ccc(-c3ccc(C(=O)N[C@H]4C[C@@H](O)[C@@H](OCC[N+](C)(C)C)NC(=O)[C@@H]5[C@@H](O)[C@@H](C)CN5C(=O)[C@H]([C@@H](C)O)NC(=O)[C@H]([C@H](O)[C@@H](O)c5ccc(O)cc5)NC(=O)[C@@H]5C[C@@H](O)CN5C(=O)[C@H]([C@@H](C)O)NC4=O)cc3)cc2)cc1` [CD101] ({pTerphenylCO(4''-OnC5H11)}-[Orn(4R-OH,5R-OCH2CH2NMe3+)]T[Hyp][hTyr(3S-OH,4S-OH)]T[Pro(3S-OH,4S-Me)]; lactam 1-C) the “Appearance upon PBS drop test” value [3] was “Clear”, the “Time the formulated solution remained soluble in PBS” value [4] was “at least 1 hour” and the “Average reduction in kidney CFU compared to fluconazole, amphotericin B and vehicle treated groups” value (Candida auris; 20 mg/kg IP on day 1 and day 4, kidney on day 8) was 3 log. The “Percent survival at the end of the study” value (Candida auris) was 80%, the “CSLM biofilm architecture, adhesion phase” value [1] was “only remnants of adhered cells, and no biofilm maturation” and the “Metabolic activity (XTT) of adhesion phase biofilms compared to untreated” value [1] was “formed significantly less biofilms”. The “Thickness of biofilms, adhesion phase” value [1] was 4 μm, the “CSLM biofilm architecture, mature phase” value [2] was “eradicated and showed bulged, deformed/broken cells” and the “Metabolic activity (XTT) of mature phase biofilms compared to untreated” value [2] was “significantly less metabolic activity”. The “Thickness of biofilms, mature phase” value [2] was 24 μm, the “Temporal effect on 3 h formed biofilms (time lapse)” value ([5]; 0.25 μg/ml added after 3 h biofilm formation) was “remained stunted and failed to grow into mature biofilms” and the “Temporal effect on formation of biofilms (time lapse)” value ([5]; 0.25 μg/ml added to cells adhered for 90 min) was “only adhered cells with stunted growth, which failed to grow into mature biofilms”.
For `CCCCCOc1ccc(-c2ccc(-c3ccc(C(=O)N[C@H]4C[C@@H](O)[C@@H](O)NC(=O)[C@@H]5[C@@H](O)[C@@H](C)CN5C(=O)[C@H]([C@@H](C)O)NC(=O)[C@H]([C@H](O)[C@@H](O)c5ccc(O)cc5)NC(=O)[C@@H]5C[C@@H](O)CN5C(=O)[C@H]([C@@H](C)O)NC4=O)cc3)cc2)cc1` [Eraxis®, Anidulafungin, reference compound] ({pTerphenylCO(4''-OnC5H11)}-[Orn(4R-OH,5R-OH)]T[Hyp][hTyr(3S-OH,4S-OH)]T[Pro(3S-OH,4S-Me)]; lactam 1-C), the “Incidence of tail vein irritation” value (Sprague Dawley rats; Days 1-3, first vehicle (1.75% Tween 80 and 5% Dextrose for CD101 acetate; 5% Dextrose for Eraxis), Eraxis 40 mg/kg/day, CD101 acetate 6 and 20 mg/kg/day, males and females) was “highest”, the “Vein irritation compared to Groups 1, 3 and 4” value (Sprague Dawley rats; Days 5-14, second vehicle (5% Mannitol, 2.5% Tween 80, 0.3% Acetic Acid for CD101 acetate; 5% Mannitol and 0.3% Acetic Acid for Eraxis), Eraxis 40 mg/kg/day, CD101 acetate 20 mg/kg/day) was “only marginally higher” and the “Animals dosed for less than the intended ten-day duration (Days 5-14) as a result of tail swelling/lesions” value (Sprague Dawley rats; males, 40 mg/kg/day (Group 2), 20-minute IV infusion, second vehicle 5% Mannitol/0.3% acetic acid) was 30%.
For `C[C@@H]1[C@H](O)[C@@H](C)/C=C/C=C/C=C/C=C/C=C/C=C/C=C/[C@H](O[C@@H]2O[C@H](C)[C@@H](O)[C@H](N)[C@@H]2O)C[C@@H]2O[C@](O)(C[C@@H](O)C[C@@H](O)[C@H](O)CC[C@@H](O)C[C@@H](O)CC(=O)O[C@H]1C)C[C@H](O)[C@H]2C(=O)O` [amphotericin B, reference compound], the “Percent survival at the end of the study” value (Candida auris) was 30%.
